System: 996289-038-R-J1-PDC spheroid viability
Test: Anticancer human tumor 996289-038-R-J1-PDC patient-derived colon adenocarcinoma cell line growth inhibition [PI3K]
Details: spheroids with HUVEC and MSC; for IC50: curve of first compound; for viability, T/C: stronger effect = lower value; active = viability on the fitted dose curve at most 10% of control; inactive = the rest
Method in brief: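 Tumor cells grown as multi-cell spheroids with HUVEC endothelial cells and MSC fibroblast-like stroma were treated with targeted agents combined with inavolisib, alpelisib, duvelisib or copanlisib. Doses fell in half-log steps from near clinical Cmax, else from 10 microM. Viability was measured.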

[1] = second compound 0.0316 µM, first compound 0.0316 µM
[2] = second compound 0.0316 µM, first compound 0.1 µM
[3] = second compound 0.0316 µM, first compound 0.316 µM
[4] = second compound 0.0316 µM, first compound 1 µM
[5] = second compound 0.0316 µM, first compound 3.16 µM
[6] = second compound 0.0316 µM, first compound 10 µM
[7] = second compound 0.1 µM, first compound 0.0316 µM
[8] = second compound 0.1 µM, first compound 0.1 µM
[9] = second compound 0.1 µM, first compound 0.316 µM
[10] = second compound 0.1 µM, first compound 1 µM
[11] = second compound 0.1 µM, first compound 3.16 µM
[12] = second compound 0.1 µM, first compound 10 µM
[13] = second compound 0.316 µM, first compound 0.0316 µM
[14] = second compound 0.316 µM, first compound 0.1 µM
[15] = second compound 0.316 µM, first compound 0.316 µM
[16] = second compound 0.316 µM, first compound 1 µM
[17] = second compound 0.316 µM, first compound 3.16 µM
[18] = second compound 0.316 µM, first compound 10 µM
[19] = second compound 1 µM, first compound 0.0316 µM
[20] = second compound 1 µM, first compound 0.1 µM
[21] = second compound 1 µM, first compound 0.316 µM
[22] = second compound 1 µM, first compound 1 µM
[23] = second compound 1 µM, first compound 3.16 µM
[24] = second compound 1 µM, first compound 10 µM
[25] = second compound 3.16 µM, first compound 0.0316 µM
[26] = second compound 3.16 µM, first compound 0.1 µM
[27] = second compound 3.16 µM, first compound 0.316 µM
[28] = second compound 3.16 µM, first compound 1 µM
[29] = second compound 3.16 µM, first compound 3.16 µM
[30] = second compound 3.16 µM, first compound 10 µM
[31] = second compound 10 µM, first compound 0.0316 µM
[32] = second compound 10 µM, first compound 0.1 µM
[33] = second compound 10 µM, first compound 0.316 µM
[34] = second compound 10 µM, first compound 1 µM
[35] = second compound 10 µM, first compound 3.16 µM
[36] = second compound 10 µM, first compound 10 µM
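Also: spheroids exposed to compounds for seven days before viability read.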
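For viability, T/C in this document: luminescence used as a proxy for viable cell amount; percent viability relative to DMSO vehicle control as 100%.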

Cn1cnc2c(F)c(Nc3ccc(Br)cc3Cl)c(C(=O)NOCCO)cc21 + CC(Nc1ncnc2nc[nH]c12)c1cc2cccc(Cl)c2c(=O)n1-c1ccccc1
0.114 µM: IC50 (second compound 10 µM)
0.225 µM: IC50 (second compound 0.316 µM)
0.166 µM: IC50 (second compound 0.1 µM)
0.218 µM: IC50 (second compound 1 µM)
inactive: viability, T/C (second compound 0.0316 µM, first compound 0.00949 µM) 102% | viability, T/C (second compound 0.0316 µM, first compound 0.03 µM) 77.2% | viability, T/C (second compound 0.0316 µM, first compound 0.0949 µM) 67.1% | viability, T/C (second compound 0.0316 µM, first compound 0.3 µM) 39.3% | viability, T/C (second compound 0.0316 µM, first compound 0.949 µM) 33.5% | viability, T/C (second compound 0.0316 µM, first compound 3 µM) 21.2% | viability, T/C (second compound 0.1 µM, first compound 0.00949 µM) 94.4% | viability, T/C (second compound 0.1 µM, first compound 0.03 µM) 77% | viability, T/C (second compound 0.1 µM, first compound 0.0949 µM) 54.9% | viability, T/C (second compound 0.1 µM, first compound 0.3 µM) 42.8% | viability, T/C (second compound 0.1 µM, first compound 0.949 µM) 33.5% | viability, T/C (second compound 0.1 µM, first compound 3 µM) 23.9% | viability, T/C (second compound 0.316 µM, first compound 0.00949 µM) 108% | viability, T/C (second compound 0.316 µM, first compound 0.03 µM) 79.7% | viability, T/C (second compound 0.316 µM, first compound 0.0949 µM) 62.8% | viability, T/C (second compound 0.316 µM, first compound 0.3 µM) 45.1% | viability, T/C (second compound 0.316 µM, first compound 0.949 µM) 36.4% | viability, T/C (second compound 0.316 µM, first compound 3 µM) 21.2% | viability, T/C (second compound 1 µM, first compound 0.00949 µM) 85.5% | viability, T/C (second compound 1 µM, first compound 0.03 µM) 69% | viability, T/C (second compound 1 µM, first compound 0.0949 µM) 63.6% | viability, T/C (second compound 1 µM, first compound 0.3 µM) 43.9% | viability, T/C (second compound 1 µM, first compound 0.949 µM) 33.6% | viability, T/C (second compound 1 µM, first compound 3 µM) 19.2% | viability, T/C (second compound 3.16 µM, first compound 0.00949 µM) 83.5% | viability, T/C (second compound 3.16 µM, first compound 0.03 µM) 73.7% | viability, T/C (second compound 3.16 µM, first compound 0.0949 µM) 58.9% | viability, T/C (second compound 3.16 µM, first compound 0.3 µM) 37.7% | viability, T/C (second compound 3.16 µM, first compound 0.949 µM) 31.1% | viability, T/C (second compound 3.16 µM, first compound 3 µM) 18.2% | viability, T/C (second compound 10 µM, first compound 0.00949 µM) 94.1% | viability, T/C (second compound 10 µM, first compound 0.03 µM) 68.3% | viability, T/C (second compound 10 µM, first compound 0.0949 µM) 53.9% | viability, T/C (second compound 10 µM, first compound 0.3 µM) 36.2% | viability, T/C (second compound 10 µM, first compound 0.949 µM) 27% | viability, T/C (second compound 10 µM, first compound 3 µM) 13.9%
0.207 µM: IC50 (second compound 0.0316 µM)
0.161 µM: IC50 (second compound 3.16 µM)

Cn1nccc1Nc1nccc(-c2ccn(C(CO)c3ccc(Cl)c(F)c3)c(=O)c2)n1 (stereo unspecified) + CC(Nc1ncnc2nc[nH]c12)c1cc2cccc(Cl)c2c(=O)n1-c1ccccc1
inactive: viability, T/C [1] 86.6% | viability, T/C [2] 97.5% | viability, T/C [3] 95.5% | viability, T/C [4] 90.1% | viability, T/C [5] 84.6% | viability, T/C [6] 61.5% | viability, T/C [7] 108% | viability, T/C [8] 89.4% | viability, T/C [9] 120% | viability, T/C [10] 92.8% | viability, T/C [11] 81.7% | viability, T/C [12] 53.1% | viability, T/C [13] 105% | viability, T/C [14] 90.8% | viability, T/C [15] 105% | viability, T/C [16] 93.3% | viability, T/C [17] 79.6% | viability, T/C [18] 55.6% | viability, T/C [19] 91.7% | viability, T/C [20] 101% | viability, T/C [21] 87.9% | viability, T/C [22] 94.4% | viability, T/C [23] 76.9% | viability, T/C [24] 46.1% | viability, T/C [25] 88.1% | viability, T/C [26] 87.2% | viability, T/C [27] 99.7% | viability, T/C [28] 86.1% | viability, T/C [29] 70.3% | viability, T/C [30] 57.1% | viability, T/C [31] 82.7% | viability, T/C [32] 88.5% | viability, T/C [33] 91.1% | viability, T/C [34] 81.7% | viability, T/C [35] 70.8% | viability, T/C [36] 43.3%
7.53 µM: IC50 (second compound 10 µM)
8.64 µM: IC50 (second compound 1 µM)
> 10 µM: IC50 (second compound 0.0316 µM) | IC50 (second compound 0.1 µM) | IC50 (second compound 0.316 µM) | IC50 (second compound 3.16 µM)

CC1(C)CCC(CN2CCN(c3ccc(C(=O)NS(=O)(=O)c4ccc(NCC5CCOCC5)c([N+](=O)[O-])c4)c(Oc4cnc5[nH]ccc5c4)c3)CC2)=C(c2ccc(Cl)cc2)C1 + Cc1nc(NC(=O)N2CCCC2C(N)=O)sc1-c1ccnc(C(C)(C)C(F)(F)F)c1
9.83 µM: IC50 (second compound 0.0316 µM)
8.31 µM: IC50 (second compound 0.316 µM)
< 0.0316 µM: IC50 (second compound 10 µM)
8.62 µM: IC50 (second compound 0.1 µM)
6.15 µM: IC50 (second compound 1 µM)
inactive: viability, T/C [1] 94% | viability, T/C [2] 91.8% | viability, T/C [3] 105% | viability, T/C [4] 110% | viability, T/C [5] 96.9% | viability, T/C [6] 49.3% | viability, T/C [7] 95.2% | viability, T/C [8] 102% | viability, T/C [9] 88.1% | viability, T/C [10] 102% | viability, T/C [11] 105% | viability, T/C [12] 42.8% | viability, T/C [13] 88.8% | viability, T/C [14] 84.9% | viability, T/C [15] 95.9% | viability, T/C [16] 93.2% | viability, T/C [17] 92.5% | viability, T/C [18] 42.1% | viability, T/C [19] 68.6% | viability, T/C [20] 83.4% | viability, T/C [21] 67.8% | viability, T/C [22] 82.6% | viability, T/C [23] 75.8% | viability, T/C [24] 31.6% | viability, T/C [25] 66.3% | viability, T/C [26] 60.9% | viability, T/C [27] 60.4% | viability, T/C [28] 61% | viability, T/C [29] 62.6% | viability, T/C [30] 29.3% | viability, T/C [31] 34.9% | viability, T/C [32] 41.8% | viability, T/C [33] 42.2% | viability, T/C [34] 54.4% | viability, T/C [35] 45.1% | viability, T/C [36] 15.4%
4.84 µM: IC50 (second compound 3.16 µM)

Source: PubChem BioAssay AID1963965 (Molecular Pharmacology Branch, DTP, NCI, 2024)
